Experimental data as given in patent US20250205240A1, “COMBINATIONS” (Recurium IP Holdings, LLC, priority 2022, published 2025).

Key:
[1] = molecular target: WEE1 (Homo sapiens, UniProt P30291); details: as provided in WO 2019/173082; cited from earlier work
[2] = tested on: CRC563 PDX model (BRAFmt CRC); type: in vivo, female athymic nude Foxn1nu mice; details: ZN-c3 60 mg/kg QD p.o., encorafenib 20 mg/kg QD p.o., cetuximab 20 mg/kg BIW i.p., 28-day study
Procedure: (§1) PDX Models: Tumor fragments (CRC769, CRC563, CTG-1009) were brought out of cryopreservation and implanted into female athymic nude Foxn1nu mice. Fragments were allowed to grow then excised once an appropriate volume was reached. A tumor slurry was made of 50% freshly harvested tumors minced to small tumor fragments in PBS and 50% Matrigel. The tumor slurry was injected subcutaneously into 6-8 week old female athymic nude Foxn1nu mice on the flank.
(§2) Grouping and treatments started when the mean tumor volume reached about 220 mm^3 (with individual tumors in the range of 200-240 mm^3). Vehicle animals were treated daily with 10 mL/kg HP-β-CD p.o. (oral gavage). Encorafenib was prepared weekly in 0.5% carboxymethyl cellulose: 0.5% Tween 80:99% deionized water and dosed daily (QD) at the indicated doses orally (p.o.) (see Tables 4 and 5 for dosage amounts). ZN-c3 was prepared daily in 20% HP-B-CD and dosed daily at the indicated doses p.o. (see Tables 4 and 5 for dosage amounts). […] Body weight and tumor volume of all animals was measured twice weekly throughout the studies that were 21 or 22 days or 3 weeks in duration (for CDX models HT-29 and LS411N) or that were 28 days or 4 weeks in duration (for PDX models CRC769, CRC563 and CTG-1009). The measurement of tumor size was performed with a caliper and the tumor volume (mm3) was estimated using the formula: TV=a×b2/2 throughout the study, where “a” and “b” is long and short diameters of a tumor, respectively. Animals were euthanized when their individual tumor burden exceeded 2000 mm^3 or is in a continuing deteriorating condition or close to a comatose state.

[3] = tested on: CTG-1009 PDX model (BRAFmt CRC); type: in vivo, female athymic nude Foxn1nu mice; details: ZN-c3 60 mg/kg QD p.o., encorafenib 20 mg/kg QD p.o., cetuximab 15 mg/kg BIW i.p., 28-day study
Procedure: as §1, §2

[4] = tested on: CRC769 PDX model (BRAFmt CRC); type: in vivo, female athymic nude Foxn1nu mice; details: ZN-c3 60 mg/kg QD p.o., encorafenib 20 mg/kg QD p.o., cetuximab 20 mg/kg BIW i.p., 28-day study
Procedure: as §1, §2

[5] = tested on: HT-29 cell line; test: In vitro tumor cell proliferation assay (3D spheroid, 3D CTG), HT-29; type: cell-based; details: Homo sapiens
Procedure: (§3) Cell suspensions containing 1.5×10^3 total cells in 100 μL culture media were deposited in each well of an ultra-low attachment 96 well plate. Plates were incubated at 37° C. with […] and 5% CO2 for 72 h to allow for spheroid formation. […] ZN-c3 and/or Encorafenib compounds in DMSO were deposited into the plates using an automated drug dispenser at the indicated concentrations. Total DMSO content was normalized to 0.1% of the total volume in all assay conditions. Plates were sealed with breathable film to reduce evaporation and incubated at 37° C. with […] and 5% CO2 for 192 h. After 192 h, plates were removed from the incubator and allowed to come to room temperature. 100 μL room temperature 3D CTG reagent (Promega, Cat #G9683) was added to each well. Plates were agitated at 520 revolutions per minute (rpm) for 5 mins, allowed to stabilize protected from light for 30 mins, then luminescence was measured on an M5e plate reader (SpectraMax). Percent viability was calculated as percentage of cell viability relative to DMSO-only vehicle control.

[6] = tested on: HT-29 CDX model (BRAFmt CRC); type: in vivo, BALB/c nude mice; details: ZN-c3 60 mg/kg QD p.o., encorafenib 15 mg/kg QD p.o., cetuximab 15 mg/kg BIW i.p.; for TGI: 21- or 22-day study
Procedure: (§4) CDX Models: 6-8 week old BALB/c nude mice were inoculated subcutaneously on the right flank with the single cell suspension of 95% viable tumor cells (5×10^6) in 100 μL RPMI 1640 without serum (COLO205), 95% viable tumor cells (2×10^6) in 100 μL McCoy's 5a Medium Modified without serum (HT-29), or 95% viable tumor cells (2×106) in 100 μL RPMI 1640 and Matrigel mixture (1:1 ratio) without serum (LS411N).
as §2

[7] = tested on: LS411N CDX model (BRAFmt CRC); type: in vivo, BALB/c nude mice; details: ZN-c3 60 mg/kg QD p.o., encorafenib 20 mg/kg QD p.o., cetuximab 15 mg/kg BIW i.p.; for TGI: 21- or 22-day study
Procedure: as §4, §2

[8] = tested on: LS411N cell line; test: In vitro tumor cell proliferation assay (3D spheroid, 3D CTG), LS411N; type: cell-based; details: Homo sapiens, LS-411N, 192 h
Procedure: as §3

[9] = HT-29 spheroids, 192 h, 250 nM ZN-c3, 1.6 nM encorafenib, relative to 0.1% DMSO
[10] = LS411N spheroids, 250 nM ZN-c3, 25 nM encorafenib, relative to 0.1% DMSO

Sequence of WEE1 (P30291 whole entry, species assumed): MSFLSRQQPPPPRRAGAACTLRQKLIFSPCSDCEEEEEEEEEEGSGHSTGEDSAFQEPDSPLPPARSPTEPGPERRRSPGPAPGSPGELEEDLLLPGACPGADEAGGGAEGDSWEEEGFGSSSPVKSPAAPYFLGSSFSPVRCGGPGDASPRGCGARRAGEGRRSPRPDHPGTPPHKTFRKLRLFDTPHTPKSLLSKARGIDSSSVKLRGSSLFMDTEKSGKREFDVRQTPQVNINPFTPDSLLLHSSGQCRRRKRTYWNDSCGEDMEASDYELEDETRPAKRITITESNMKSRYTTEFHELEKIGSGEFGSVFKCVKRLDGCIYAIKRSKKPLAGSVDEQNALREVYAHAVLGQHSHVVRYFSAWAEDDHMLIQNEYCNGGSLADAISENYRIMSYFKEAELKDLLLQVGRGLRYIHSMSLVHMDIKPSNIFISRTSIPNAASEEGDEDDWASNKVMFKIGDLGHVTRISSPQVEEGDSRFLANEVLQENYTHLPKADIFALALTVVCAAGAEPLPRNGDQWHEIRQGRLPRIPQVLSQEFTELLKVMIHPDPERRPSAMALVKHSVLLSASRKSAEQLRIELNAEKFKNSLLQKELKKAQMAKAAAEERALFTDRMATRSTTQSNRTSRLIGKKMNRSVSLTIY

## C=CCn1c(=O)c2cnc(Nc3ccc(N4CCN(C)CC4)cc3)nc2n1-c1ccc2c(n1)[C@@](O)(CC)CC2 [ZN-c3, (R)-2-allyl-1-(7-ethyl-7-hydroxy-6,7-dihydro-5H-cyclopenta[b]pyridin-2-yl)-6-((4-(4-methylpiperazin-1-yl)phenyl)amino)-1,2-dihydro-3H-pyrazolo[3,4-d]pyrimidin-3-one]
[1]
  activity against WEE1: active against WEE1
[2]
  TGI: 43.4
[3]
  TGI: 51.2
[4]
  TGI: 19.0
[5]; HT-29, 192 h
  inhibition at 0.3 µM: 34.5%
[5]; [9]
  inhibition at 0.25 µM: 39%
[6]
  Tumor Vol. Change from D 14-D 21 (%): 36.3%
  TGI: 15.0
[7]
  Tumor Vol. Change from D 14-D 21 (%): 35.8%
  TGI: 69.0
[8]
  inhibition at 0.35 µM: 21.6%
[8]; [10]
  inhibition at 0.25 µM: 27.5%

## COC(=O)N[C@@H](C)CNc1nccc(-c2cn(C(C)C)nc2-c2cc(Cl)cc(NS(C)(=O)=O)c2F)n1 [Encorafenib, encorafenib, reference compound]
[3]
  TGI: 80.0
[4]
  TGI: 69.0
[5]; HT-29, 192 h
  inhibition at 0.01 µM: 75.8%
[5]; [9]
  inhibition at 0.0016 µM: 39.5%
[6]
  Tumor Vol. Change from D 14-D 21 (%): 36.9%
  TGI: 42.6
[7]
  Tumor Vol. Change from D 14-D 21 (%): 36.6%
  TGI: 64.6
[8]; [10]
  inhibition at 0.025 µM: 28.3%
